Measured values: BigSolDB 2.1

CN1CCN(c2c(F)cc3c(=O)c(C(=O)O)cn4c3c2OCN4C)CC1
solubility (mole fraction)
Settings	283.15 K	288.15 K	293.15 K	298.15 K	303.15 K	308.15 K	313.15 K	318.15 K	323.15 K	328.15 K
in 1,4-dioxane	–	0.000114	0.000132	0.000153	0.000188	0.00023	0.00028	0.000348	0.000427	0.000512
in THF	–	0.000432	0.000508	0.000591	0.00068	0.000777	0.000887	0.001	0.00113	0.00125
in acetone	0.000219	0.000266	0.000316	0.000367	0.000425	0.000488	0.00057	0.000678	0.000796	–
in acetonitrile	0.000122	0.000147	0.000172	0.000213	0.00025	0.000298	0.000345	0.000422	0.000509	–
in ethanol	6.66e-05	7.84e-05	9.47e-05	0.000117	0.000144	0.000175	0.000217	0.000264	0.000326	–
in ethyl acetate	0.000154	0.000172	0.000197	0.000226	0.000255	0.000288	0.000326	0.000378	0.000432	–
in isopropanol	5.13e-05	6.16e-05	7.5e-05	9.22e-05	0.000107	0.00013	0.000164	0.000204	0.000259	–
in methanol	0.000127	0.000147	0.000173	0.000204	0.000249	0.000295	0.000354	0.000435	0.000521	–
in n-butanol	8.77e-05	0.0001	0.000116	0.00014	0.000169	0.000204	0.000254	0.000316	0.000408	–
in n-propanol	8.29e-05	9.58e-05	0.000114	0.000136	0.000164	0.000202	0.000253	0.000315	0.000391	–
in tert-amyl alcohol	7.86e-05	9.12e-05	0.000107	0.000122	0.00014	0.00017	0.000202	0.00024	0.00029	–
in toluene	4.91e-05	6.13e-05	7.24e-05	8.74e-05	0.000102	0.000117	0.000135	0.000155	0.00018	–
